No end group written: not given here.
Assays:
[1] = test system: fibroblasts from bleomycin treated mouse lung; assay: Matrigel invasion assay, mouse lung fibroblasts; type: cell-based; details: fibroblasts from WT or ASMA-HAS2 mice; 8 μm
Experimental: Fibroblasts are critical effector cells in mediating tissue remodeling. […] We have developed a novel model of progressive lung fibrosis based on a cancer metastasis model. […] We hypothesized that fibrotic fibroblasts acquire an invasive phenotype that is essential for progressive fibrogenesis and that CD44 has a critical role in regulating the process. We utilized an assay system in which fibroblasts are evaluated for their ability to spontaneously invade Matrigel, a composite matrix with basement membrane constituents. This assay has been used to analyze the metastatic potential of cancer cells (40).
To determine the role of CD44 in fibroblast invasion we examined the invasive capacity of fibroblasts isolated from CD44 null mice after bleomycin treatment and found impaired invasive capacity (not shown). Similar results were found from fibroblasts isolated from ASMA-HAS2+/CD44−/− mice (FIG. 37 A). Furthermore, treating fibroblasts isolated from bleomycin-challenged wild type C57B1/6J mice with anti-CD44 Abs blunted fibroblast invasion (FIG. 37 B).

[2] = molecular target: T1, human recombinant MK2 (h) (Homo sapiens, UniProt P49137); assay: Radiometric IC50 Determination; type: biochemical; details: 10-point curve; ATP within 15 μM of apparent Km
T1 construct: purchased Millipore (IC50 Profiler Express service)
T1 sequence (P49137 whole entry): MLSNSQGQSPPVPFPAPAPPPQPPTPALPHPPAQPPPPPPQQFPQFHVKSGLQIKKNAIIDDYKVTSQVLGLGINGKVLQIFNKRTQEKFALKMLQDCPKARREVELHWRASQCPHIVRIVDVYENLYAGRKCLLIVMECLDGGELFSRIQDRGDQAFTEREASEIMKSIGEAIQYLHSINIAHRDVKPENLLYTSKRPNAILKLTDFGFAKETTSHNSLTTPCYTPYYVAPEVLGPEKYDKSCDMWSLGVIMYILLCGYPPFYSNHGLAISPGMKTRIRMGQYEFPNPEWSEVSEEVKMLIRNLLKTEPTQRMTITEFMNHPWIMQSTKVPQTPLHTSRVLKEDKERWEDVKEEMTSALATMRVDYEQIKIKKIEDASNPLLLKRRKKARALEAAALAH
Experimental: The IC50 value was estimated from a 10-point curve of one-half log dilutions. Peptide was supplied in dimethyl sulfoxide (DMSO). Specifically, human recombinant MK2 (h) (5-10 mU) was incubated with 50 mM sodium 3-glycerophosphate (pH=7.5), 0.1 mM EGTA, 30 μM of substrate peptide ([…]; SEQ ID NO: 21), 10 mM magnesium acetate, and 90 uM γ-^33P-ATP (final volume of 25 μL) for 40 minutes at room temperature. Then, the reaction was stopped with 3% phosphoric acid. 10 μL of this mixture was spotted onto a P30 filtermat and washed three times for five minutes with 75 mM phosphoric acid and once with methanol. Finally, the membrane was dried and a scintillation counter was used.
Specifically, in these assays, a positively charged substrate is phosphorylated with a radiolabeled phosphate group from an ATP if the kinase is not inhibited by an inhibitor peptide. The positively charged substrate then is attracted to a negatively charged filter membrane, quantified with a scintillation counter, and compared to a 100% activity control.

[3] = test system: phospho-Thr^334-MAPKAPK2 (activated form of MK2); assay: Anti-phospho-Thr334-MAPKAPK2 staining of lung sections, bleomycin treatment model; type: in vivo, mouse; details: day 14-28
Excerpt: C57-BL/6 mice were subjected to bleomycin injury at day 0. […] Original magnifications: 20×.
Briefly, C57-BL/6 mice were subjected to bleomycin injury at day 0. […] Formalin-fixed lung tissue sections were immunostained against phospho-Thr^334 MK2. Control staining was with biotinylated secondary IgG antibody. Streptavidin-conjugated horseradish peroxidase was used with 3,3′-diaminobenzidene as substrate and nuclei were counterstained with hematoxylin.

IL-6 = assay: Circulating inflammatory cytokines, bleomycin treatment model; type: in vivo, mouse; details: 24 hours after final administration
mesothelial cells = details: cited from earlier work
[4] = test system: bleomycin-induced lung fibrosis in C57BL/6 mice; assay: Bleomycin mouse model of pulmonary fibrosis (IPF treatment model); type: in vivo; details: for lung architecture and collagen distribution (H&E, Masson's trichrome), day 28: daily day 14-28 post bleomycin
Experimental: A mouse model of pulmonary fibrosis was generated by administering 0.025 U of bleomycin/PBS intratracheally to C57BL/6 mice. […] At 21 day post bleomycin delivery (for prevention model) or 28 post bleomycin delivery (for treatment model), groups of mice were sacrificed with a sodium pentobarbital injection (120 mg/kg) and the chest cavity was opened. The right mainstem bronchus was ligated and the right lung was removed. The trachea was cannulated and the left lung was perfused with 4% formaldehyde at 21 cm H2O pressure. The tissue blocks then were embedded in paraffin, and […] sections were prepared for staining. Sections from each animal were stained with hematoxylin and eosin (H&E) to visualize cells or with Masson's Trichrome staining to highlight collagen deposition. […] Stained sections were mounted onto a labeled glass slide with organic mounting medium.
The classic bleomycin model, as depicted in FIG. 10, has been used widely in the literature in the pre-fibrotic stage to test efficacy of any intervention.
More specifically, fibrotic loci in the lungs were induced by delivering intratracheally about 0.025 U of bleomycin (dissolved in PBS) to C57BL/6 mice. […] Mice were sacrificed with a sodium pentobarbital injection (120 mg/kg) and the chest cavity was opened. The right mainstem bronchus was ligated and the right lung is removed. The trachea was cannulated and the left lung was perfused with 4% formaldehyde at 21 cm H2O pressure. The tissue blocks then were embedded in paraffin, and […] sections were prepared, and stained with hematoxylin and eosin (H&E; for pathological examination) or Masson's Trichrome (for collagen staining)
Next, collagen deposition was determined quantitatively by using the standard hydroxyproline assay with whole left lung. Total collagen (soluble and insoluble) deposition was assessed by analyzing hydroxyproline concentrations in murine lungs day 28 post bleomycin injury.

[5] = test system: bleomycin-induced lung fibrosis in C57BL/6 mice; details: 37.5 μg/kg daily for 14 d from d14, inhaled or intra-peritoneal; cited from earlier work
[6] = test system: bleomycin treated wild type (WT) mouse lung; assay: HA content in bleomycin treated mouse lung; details: in vivo
[7] = test system: fibroblasts from human idiopathic pulmonary fibrosis (IPF) lung; assay: HA production of fibroblasts; type: cell-based
TNF-α = assay: Circulating inflammatory cytokines, bleomycin treatment model; type: in vivo, mouse; details: 24 hours after final administration

YARAAARQARAKALARQLGVAA [MMI-0100]
fibroblast invasion [1]: significantly reduced | IC50 [2]: 22 µM | phospho-Thr^334-MAPKAPK2 staining ([3]; intraperitoneal 50 μg/kg daily): decreased | phospho-Thr^334-MAPKAPK2 staining ([3]; nebulized 50 μg/kg daily): decreased | plasma level of IL-6 (IL-6; intraperitoneal): significantly reduced | plasma level of IL-6 (IL-6; nebulized): significantly reduced | TFG-β-induced cytokine release (mesothelial cells): inhibits | progression of collagen deposition (hydroxyproline assay, whole left lung), day 28 ([4]; 50 μg/kg/day IP or nebulizer from day 14): significantly arrested further progression | lung architecture and collagen distribution (H&E, Masson's trichrome), day 28 ([4]; intraperitoneally): rescued | lung architecture and collagen distribution (H&E, Masson's trichrome), day 28 ([4]; locally applied to the lung (nebulized)): rescued | progression of fibrosis (collagen deposition, myofibroblast differentiation, activated MK2 expression) [5]: inhibited | hyaluronan (HA) content in lung [6]: reduced | HA production [7]: reduced | plasma level of TNF-α (TNF-α; intraperitoneal): significantly reduced | plasma level of TNF-α (TNF-α; nebulized): significantly reduced

From patent publication US20150258192A1, “COMPOSITIONS AND METHODS FOR PREVENTING OR TREATING CHRONIC LUNG ALLOGRAFT DYSFUNCTION (CLAD) AND IDIOPATHIC PULMONARY FIBROSIS (IPF)” (priority 2014, published 2015)
